Experimental data from the supplement of paper PMC4862054.
“And” between values parts separate entries of the source, which are not always exact repeats. Equal entries are not always repeated.

Tests used:
Assay in all cases: normalised viability (% of control), CellTiter-Blue; higher = more viable cells (about 100 = DMSO control)
Settings in all cases: incubation time: 72 h
[1] = tested on: CAL-148
Experimental: (§1)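 DSRT, CellTiter-Blue viability, 72 h incubation. Signal is normalised to DMSO and benzethonium chloride controls. Value is the normalised response at dose 7.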

[2] = tested on: CAL-51
Experimental: as §1

[3] = tested on: CAL-85-1
Experimental: as §1

[4] = tested on: HDQ-P1
Experimental: as §1

[5] = tested on: MDA-MB-453
Experimental: as §1

Row | SMILES | normalised viability [1] | normalised viability [2] | normalised viability [3] | normalised viability [4] | normalised viability [5]
1 | O=C(Nc1c[nH]nc1-c1nc2ccc(CN3CCOCC3)cc2[nH]1)NC1CC1 [AT9283] (1000 nM) | 67.3% | 51.3% | 55.4% | 50.3% | 42%
2 | COc1cc(CCc2cc(NC(=O)c3ccc(N4CC(C)NC(C)C4)cc3)n[nH]2)cc(OC)c1 (stereo not given) [AZD4547] (100 nM) | 106% | 101% | 74.9% | 106% | 78.1%
3 | CCC/C=C/C=C/C(=O)O[C@H]1/C(=C/C(=O)OC)C[C@H]2C[C@H]([C@@H](C)O)OC(=O)C[C@H](O)C[C@@H]3C[C@H](OC(C)=O)C(C)(C)[C@](O)(C[C@@H]4C/C(=C/C(=O)OC)C[C@H](/C=C/C(C)(C)[C@]1(O)O2)O4)O3 [Bryostatin 1] (10 nM) | 98.1% | 109% | 98.7% | 118% | 92.2%
4 | CO[C@@H](C(=O)N1Cc2[nH]nc(NC(=O)c3ccc(N4CCN(C)CC4)cc3)c2C1)c1ccccc1 [Danusertib] (1000 nM) | 47.2% | 44.9% | 50.8% | 45.6% | 41.7%
5 | Cc1nc(Nc2ncc(C(=O)Nc3c(C)cccc3Cl)s2)cc(N2CCN(CCO)CC2)n1 [Dasatinib] (100 nM) | 109% and 93.3% | 47.8% and 48.7% | 56.4% and 53% | 15.8% and 11.4% | 88.2% and 94.5%
6 | Cc1c(CN2CCN(C(=O)[C@H](C)O)CC2)sc2c(N3CCOCC3)nc(-c3cnc(N)nc3)nc12 [GDC-0980] (1000 nM) | 15.3% | 16.5% | 27.1% | 24.7% | 8.12%
